Test results taken from the supplement of paper PMC10307832.

Key:
Experiment in all cases: relative viability (nuclei count vs DMSO), 5 days (fraction); higher = more cells survive
Crenolanib + Trametinib = compound: CC1(COc2ccc3c(c2)ncn3-c2ccc3cccc(N4CCC(N)CC4)c3n2)COC1 [Crenolanib] + CC(=O)Nc1cccc(-n2c(=O)n(C3CC3)c(=O)c3c(Nc4ccc(I)cc4F)n(C)c(=O)c(C)c32)c1 [Trametinib] (partner 0.02 µM)
Summary of the method: (§1)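 Nuclei were stained with Hoechst during a one-step fixation (final 0.05% Triton X-100, 1% formaldehyde, 1 ug/ml Hoechst) carried out 5 days after dosing, then counted on 4× images. The cells, lung cancer lines in 1536-well plates, had been dosed by pin tool the day after seeding with one drug alone or a fixed anchor-drug dose plus five library-drug doses (not always all listed) in √10 steps. Relative viability is the nuclei count in treated wells divided by that in vehicle wells, and each value is the median of duplicate plates.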

Crenolanib + Lapatinib = compound: CC1(COc2ccc3c(c2)ncn3-c2ccc3cccc(N4CCC(N)CC4)c3n2)COC1 [Crenolanib] + CS(=O)(=O)CCNCc1ccc(-c2ccc3ncnc(Nc4ccc(OCc5cccc(F)c5)c(Cl)c4)c3c2)o1 [Lapatinib] (partner 2 µM)
Summary of the method: as §1

Crenolanib + Pictilisib = compound: CC1(COc2ccc3c(c2)ncn3-c2ccc3cccc(N4CCC(N)CC4)c3n2)COC1 [Crenolanib] + CS(=O)(=O)N1CCN(Cc2cc3nc(-c4cccc5[nH]ncc45)nc(N4CCOCC4)c3s2)CC1 [Pictilisib] (partner 1 µM)
Summary of the method: as §1

Tivantinib + Trametinib = compound: O=C1NC(=O)[C@@H](c2cn3c4c(cccc24)CCC3)[C@@H]1c1c[nH]c2ccccc12 [Tivantinib] + CC(=O)Nc1cccc(-n2c(=O)n(C3CC3)c(=O)c3c(Nc4ccc(I)cc4F)n(C)c(=O)c(C)c32)c1 [Trametinib] (partner 0.02 µM)
Summary of the method: as §1

UMC-11
relative viability (Crenolanib + Trametinib; first compound 0.01 µM): 0.74 | relative viability (Crenolanib + Trametinib; first compound 0.03162 µM): 0.676 | relative viability (Crenolanib + Trametinib; first compound 0.1 µM): 0.683 | relative viability (Crenolanib + Trametinib; first compound 0.3162 µM): 0.68 | relative viability (Crenolanib + Trametinib; first compound 1 µM): 0.684 | relative viability (Crenolanib + Lapatinib; first compound 0.01 µM): 0.955 | relative viability (Crenolanib + Lapatinib; first compound 0.03162 µM): 1.04 | relative viability (Crenolanib + Lapatinib; first compound 0.1 µM): 0.895 | relative viability (Crenolanib + Lapatinib; first compound 0.3162 µM): 0.985 | relative viability (Crenolanib + Lapatinib; first compound 1 µM): 0.95 | relative viability (Crenolanib + Pictilisib; first compound 0.01 µM): 0.76 | relative viability (Crenolanib + Pictilisib; first compound 0.03162 µM): 0.834 | relative viability (Crenolanib + Pictilisib; first compound 0.1 µM): 0.787 | relative viability (Crenolanib + Pictilisib; first compound 0.3162 µM): 0.848 | relative viability (Crenolanib + Pictilisib; first compound 1 µM): 0.733 | relative viability (Tivantinib + Trametinib; first compound 0.01 µM): 0.678 | relative viability (Tivantinib + Trametinib; first compound 0.03162 µM): 0.451 | relative viability (Tivantinib + Trametinib; first compound 0.1 µM): 0.666 | relative viability (Tivantinib + Trametinib; first compound 0.3162 µM): 0.693
